Test system: Plasmodium berghei
Experiment: Luciferase/luciferin-expressing antifolate-resistant parasites were used to infect a culture of HepG2 cells that were pre-incubated with compounds. Infected hepatocytes emit light due to the luciferase reaction. Assay results are presented as the percent inhibition of light emission compared to control. […]
Format: functional
Details: sporozoite; for IC50: read-out: LUCIFERASE INFECTION ASSAY - IC50; for IC90: read-out: LUCIFERASE INFECTION ASSAY - IC90

SMILES	IC50	IC90
O=C(Nc1ccccc1)Nc1cccc(Cl)c1	> 13.4 µM	> 13.4 µM
O=C(NCc1ccc(-c2nc3ccccc3s2)cc1)c1ccco1	2.81 µM	3.45 µM
C=CCc1ccccc1OCC(O)CN1CCN(c2ccccc2OC)CC1 (stereo not given)	> 7.88 µM	> 7.88 µM
COc1cc(OC)cc(OCC(O)Cn2ccnc2)c1 (stereo not given)	> 11.9 µM	> 11.9 µM
CSC1=C(C#N)C(=O)NC(c2ccc(Cl)cc2Cl)S1 (stereo not given)	> 9.96 µM	> 9.96 µM
COc1ccc(CC(N)c2csc(NC(=O)Nc3ccccc3Oc3ccccc3)n2)cc1 (stereo not given)	> 7.17 µM	> 7.17 µM
COc1ccc(CC(N)c2csc(NC(=O)c3cc(C(C)(C)C)oc3C)n2)cc1 (stereo not given)	2.91 µM	4.39 µM
COc1cccc(Nc2nc(C(N)Cc3ccc(F)cc3)cs2)n1 (stereo not given)	> 9.58 µM	> 9.58 µM
CNc1nc(NCc2ccc(C)cc2C)c2sccc2n1	> 11.1 µM	> 11.1 µM
COc1ccccc1CNc1nc(NCc2ccccc2SC)c2sccc2n1	> 7.81 µM	> 7.81 µM
COc1ccc(C(C)(O)c2nc(-c3cccc(F)c3)cs2)cc1 (stereo not given)	5.17 µM	5.23 µM
O=C(CN1CCNCC1)N1CCOCC1	> 15.5 µM	> 15.5 µM
CCCCCc1c(C)nc(-c2ccccn2)nc1O	> 12.8 µM	> 12.8 µM
CN(C)C(=O)c1ccc(-c2cc3c(Nc4cccc(N(C)C)c4)nccc3n2C)cc1	> 10 µM	> 10 µM
COc1ccc2[nH]cc(CCNC(=O)Nc3ccc(Cl)c(Cl)c3)c2c1	> 8.72 µM	> 8.72 µM
N#CCSC1=CC(=O)CC(c2ccccc2)S1 (stereo not given)	> 12.6 µM	> 12.6 µM
Cc1ccc(Sc2ncnc3sccc23)cc1	> 12.8 µM	> 12.8 µM
CCCc1cc(N2CCN(C)CC2)n2ncc(-c3ccccc3)c2n1	2.71 µM	> 9.84 µM
CC(=C(C#N)C#N)c1ccc2c(c1)OCCO2	> 10 µM	> 10 µM
CC(C)(C)c1ccccc1NC(=O)Nc1nc(C(N)Cc2ccccc2)cs1 (stereo not given)	4.59 µM	7.79 µM
NC(Cc1ccccc1)c1csc(NC(=O)NC(c2ccccc2)c2ccccc2)n1 (stereo not given)	> 7.7 µM	> 7.7 µM
Cc1cc(NCc2cccnc2)n2nc(C(F)(F)F)c(-c3ccccc3)c2n1	7.83 µM	> 8.61 µM
O=C(Nc1ccc(F)cc1)c1cccc(C(=O)Nc2ccc(F)cc2)n1	3.45 µM	5.69 µM

SMILES	IC50	IC90
Nc1ncc(-c2ccc(F)c(Cl)c2)cc1-c1ccc(O)cc1	> 10.5 µM	> 10.5 µM
C=CCSc1nnc(-c2ccco2)n1-c1ccc(OCc2ccccc2)cc1	> 8.47 µM	> 8.47 µM
CC(=O)c1ccc(N2CCN(Cc3ccc(C)s3)CC2)cc1	> 10.5 µM	> 10.5 µM
NNC(=O)c1cc2ccc3ccccc3c2s1	> 13.6 µM	> 13.6 µM
Clc1cccc(-c2cc3c(Nc4ccccn4)nccc3[nH]2)c1	6.48 µM	6.66 µM
Cc1ccc(-c2cnc(N)c(-c3ccc(C(=O)NCCN(C)C)cc3)c2)cc1	> 8.81 µM	> 8.81 µM
COc1ccc(CC(N)c2csc(NC(=O)Nc3cccc(Cl)c3)n2)cc1 (stereo not given)	> 8.19 µM	> 8.19 µM
CC(=O)Oc1cc2sc(=O)oc2c2ccccc12	> 12.7 µM	> 12.7 µM
O=C(COC(=O)c1ccc2ccccc2n1)NCCc1ccccc1	> 10 µM	> 10 µM
Nc1ncc(-c2cc(C(F)(F)F)cc(C(F)(F)F)c2)cc1-c1ccc(O)cc1	> 8.29 µM	> 8.29 µM
CCc1ccc(C2NC(=O)NC(C)=C2C(=O)c2ccccc2)cc1 (stereo not given)	> 10 µM	> 10 µM
Nc1ncc(-c2cc(C(F)(F)F)cc(C(F)(F)F)c2)cc1-c1cncc2ccccc12	> 7.62 µM	> 7.62 µM
Nc1ncc(-c2ccc(F)c(Cl)c2)cc1-c1cccc(O)c1	> 10.5 µM	> 10.5 µM
FC(F)(F)c1ccnc(N2CCN(c3ncnc4scc(-c5ccccc5)c34)CC2)n1	> 7.46 µM	> 7.46 µM
CCOC(=O)c1[nH]c2ccccc2c1-c1ccccc1	> 12.4 µM	> 12.4 µM
COc1ccccc1-c1cc2c(Nc3ccc4c(c3)OCCO4)nccc2n1C	2.39 µM	4.78 µM
O=S(=O)(c1cc(C(F)(F)F)ccn1)c1cccs1	> 11.3 µM	> 11.3 µM
CC(C)Oc1ccc(Nc2nccc3[nH]c(-c4ccsc4)cc23)cc1	2.25 µM	4.09 µM
CC(C)CC(N)c1csc(NC(=O)c2ccc(F)c(Cl)c2)n1 (stereo not given)	8.74 µM	> 9.65 µM
CSc1sc(-c2ccon2)c(-c2cccs2)c1C#N	> 10.8 µM	> 10.8 µM
O=C(O)COc1ccccc1CS(=O)(=O)c1ccc(Cl)cc1	> 9.68 µM	> 9.68 µM
O=C(NNC(=O)c1cccs1)c1cncc(C#Cc2ccccc2)c1	> 9.5 µM	> 9.5 µM
COc1ccccc1-c1cc(-c2cccc(OC(F)(F)F)c2)cnc1N	> 9.16 µM	> 9.16 µM

SMILES	IC50	IC90
Cc1ccc(S(=O)(=O)CCN2CCC(C#N)CC2)cc1	> 11.3 µM	> 11.3 µM
CC(C)(C)c1cc(C(=O)Nc2nc(C(N)CCc3ccccc3)cs2)n(Cc2ccccc2)n1 (stereo not given)	> 6.97 µM	> 6.97 µM
NC(Cc1ccccc1)c1csc(NC(=O)Nc2ccccc2-c2ccccc2)n1 (stereo not given)	> 7.96 µM	> 7.96 µM
Cc1cccc(N2CCN(C(=O)c3nn(-c4ccccc4)c(=O)c4ccccc34)CC2)c1C	> 10 µM	> 10 µM
NC(c1csc(NC(=O)Nc2cccc3ccccc23)n1)C1CCCCC1 (stereo not given)	> 8.67 µM	> 8.67 µM
c1ccc(-c2cc3c(Nc4ccccn4)nccc3[nH]2)cc1	> 10 µM	> 10 µM
CN(C)C(=O)c1nnsc1S(=O)(=O)c1ccc(Cl)cc1	8.45 µM	> 9.95 µM
N=C(NOC(=O)Nc1ccc(OC(F)(F)F)cc1)c1cnccn1	> 9.67 µM	> 9.67 µM
Cc1nnc(NC(=O)CN2C(=O)COc3ccc(Cl)cc32)s1	> 9.74 µM	> 9.74 µM
CCOc1ccccc1N1CCN(CC(=O)Nc2cc(C)ccc2C)CC1	> 10 µM	> 10 µM
COc1cc2c(cc1OC)C(c1cccc(C(F)(F)F)c1)CC(=O)N2 (stereo not given)	> 9.39 µM	> 9.39 µM
CCCCc1ccc(NC(=O)c2cc(OC)c(OC)c(OC)c2)cc1	> 9.61 µM	> 9.61 µM
Nc1ncc(-c2cc(F)c(F)c(F)c2)cc1-c1cccc(O)c1	> 10.4 µM	> 10.4 µM
O=C(CC1(O)C(=O)Nc2ccccc21)c1ccc(OCC(=O)N2CCOCC2)cc1 (stereo not given)	> 10 µM	> 10 µM
COc1ccc(OC)c(NC(=O)C2(C)CCN2Cc2ccc(C(C)C)cc2)c1 (stereo not given)	> 8.63 µM	> 8.63 µM
CC(N)c1csc(NC(=O)c2cccnc2Oc2ccccc2)n1 (stereo not given)	3.09 µM	5.22 µM
CCN(CC)c1ccc(Nc2nc(-c3sc(C)nc3C)cs2)cc1	> 9.2 µM	> 9.2 µM
CN1CCc2nc3sc(C(=O)Nc4ccc(Cl)cc4F)c(N)c3cc2C1	> 8.44 µM	> 8.44 µM
COc1cc(OC)cc(Oc2nc(NC(C)C)nc3ccsc23)c1	1.25 µM	1.38 µM
NC(CCc1ccccc1)c1csc(NC(=O)Nc2cccc3ccccc23)n1 (stereo not given)	5.11 µM	> 8.2 µM
CS(=O)(=O)Nc1ccc(C(=N)NOC(=O)Nc2ccc(C(F)(F)F)cc2)cc1	> 7.93 µM	> 7.93 µM
COc1ccc(Nc2nccc3[nH]c(-c4ccsc4)cc23)cn1	> 10 µM	> 10 µM
CCOc1ccccc1NC(=O)Cc1nc2nc(C)cc(C)n2n1	> 10.1 µM	> 10.1 µM

SMILES	IC50	IC90
COc1cc(OC)c(C2Nc3cc(Cl)c(S(N)(=O)=O)cc3S(=O)(=O)N2)cc1OC (stereo not given)	> 10 µM	> 10 µM
CCCc1cc(NCCCN2CCOCC2)n2nc(C)c(-c3ccccc3)c2n1	> 8.39 µM	> 8.39 µM
CCOC(=O)c1c(C)[nH]c(C(=O)COC(=O)c2ccc(CO)cc2)c1C	> 10 µM	> 10 µM
CCOC(=O)c1c[nH]c2ccc(OC(F)(F)F)cc2c1=O	> 11 µM	> 11 µM
COCOc1ccc(-c2cc(-c3cc(C)c(O)c(C)c3)cnc2N)cc1	4.46 µM	6.77 µM
CC(C)N(C(=O)CSc1nnc(-c2cccc(S(=O)(=O)N3CCOCC3)c2)n1-c1ccc(F)cc1)c1ccccc1	> 10 µM	> 10 µM
Cc1ccc(C(=O)Nc2nc(C(N)Cc3ccccc3)cs2)cc1 (stereo not given)	> 9.78 µM	> 9.78 µM
CCN(CC)CC(O)COc1cc(C(F)(F)F)ccn1 (stereo not given)	> 11.3 µM	> 11.3 µM
CC(C)Oc1cccc(Nc2nccc3[nH]c(-c4cccc(F)c4)cc23)c1	1.49 µM	> 10 µM
CC1CN(c2nc(N)c3c(N)nc4c(c3c2C#N)CC(=O)N4C2CCCC2)CC(C)O1 (stereo not given)	> 10 µM	> 10 µM
CCOC(=O)N1CCN(CC(O)COc2ccc3oc4ccccc4c3c2)CC1 (stereo not given)	> 10 µM	> 10 µM
COc1cccc(Nc2nnc(SCC(=O)N(c3ccccc3)C(C)C)s2)c1	> 10 µM	> 10 µM
O=C(CSc1nnc(-c2ccco2)n1-c1ccc2c(c1)OCCO2)Nc1cc(Cl)cc(Cl)c1	> 6.56 µM	> 6.56 µM
NC(c1ccccc1)c1csc(NC(=O)NC(c2ccccc2)c2ccccc2)n1 (stereo not given)	> 7.96 µM	> 7.96 µM
CC(C)(C)c1ccc(NC(=O)NCCSCc2ccco2)cc1	> 9.93 µM	> 9.93 µM
CC(C)CC(N)c1csc(NC(=O)NC(c2ccccc2)c2ccccc2)n1 (stereo not given)	2.93 µM	3.63 µM
Clc1ccc(SCc2nc(N3CCN(c4ncccn4)CC3)c3c4c(sc3n2)CCC4)cc1	> 10 µM	> 10 µM
CC(=O)Nc1cccc(Nc2nccc3[nH]c(-c4cccc(C(F)(F)F)c4)cc23)c1	0.705 µM	2.28 µM
CC(=O)Oc1ccccc1C(=O)NCc1ccc(C)cc1	> 11.6 µM	> 11.6 µM
NC(=O)c1ccc(-c2cc(-c3cc(F)c(F)c(F)c3)cnc2N)cc1	> 9.61 µM	> 9.61 µM
NC(Cc1ccc(F)cc1)c1csc(NC(=O)Nc2ccccc2Oc2ccccc2)n1 (stereo not given)	> 7.36 µM	> 7.36 µM

Reference: ChEMBL document CHEMBL4483862, “Open-source discovery of chemical leads for next-generation chemoprotective antimalarials” (2018)
